Test results published in patent US20030166932A1 (priority 2002, published 2003).

Assays:
RXRα [1] = target: T1, RXRα (Homo sapiens, UniProt P19793); experiment: ligand binding assay
T1 sequence (P19793 1-462): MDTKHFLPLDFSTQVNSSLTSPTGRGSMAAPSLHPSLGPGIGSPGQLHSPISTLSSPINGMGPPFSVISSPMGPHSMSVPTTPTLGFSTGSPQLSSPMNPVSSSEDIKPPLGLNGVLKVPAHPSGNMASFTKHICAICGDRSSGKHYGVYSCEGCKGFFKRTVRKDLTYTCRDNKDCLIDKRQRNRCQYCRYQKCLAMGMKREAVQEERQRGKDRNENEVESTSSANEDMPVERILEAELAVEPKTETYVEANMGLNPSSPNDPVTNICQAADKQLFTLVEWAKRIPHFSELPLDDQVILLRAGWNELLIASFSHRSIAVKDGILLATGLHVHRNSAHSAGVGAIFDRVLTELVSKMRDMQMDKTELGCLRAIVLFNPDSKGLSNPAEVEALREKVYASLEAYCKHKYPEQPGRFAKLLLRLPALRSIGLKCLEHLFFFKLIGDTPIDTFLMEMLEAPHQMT
Excerpt: (§1) The results obtained in this assay are expressed in EC50 numbers, as they are also in the chimeric receptor transactivation assay. The results of ligand binding assay are expressed in Kd numbers.
(§2) Particularly, the transactivation data pertaining to RAR receptors were obtained in the chimeric assay, and the data pertaining to transactivation of RXR receptors were obtained in the holoreceptor transactivation assay.

RXRγ [2] = target: T2, RXRγ (UniProt P28705); experiment: holoreceptor transactivation assay; assay type: cell-based; conditions: for EC50: NA = Not Active, read-out: RXR Trans. EC50 (nM) Y; for % efficacy, RXR Trans. Y: relative to 10^−6 M AGN 194204
T2 sequence (P28705 1-463): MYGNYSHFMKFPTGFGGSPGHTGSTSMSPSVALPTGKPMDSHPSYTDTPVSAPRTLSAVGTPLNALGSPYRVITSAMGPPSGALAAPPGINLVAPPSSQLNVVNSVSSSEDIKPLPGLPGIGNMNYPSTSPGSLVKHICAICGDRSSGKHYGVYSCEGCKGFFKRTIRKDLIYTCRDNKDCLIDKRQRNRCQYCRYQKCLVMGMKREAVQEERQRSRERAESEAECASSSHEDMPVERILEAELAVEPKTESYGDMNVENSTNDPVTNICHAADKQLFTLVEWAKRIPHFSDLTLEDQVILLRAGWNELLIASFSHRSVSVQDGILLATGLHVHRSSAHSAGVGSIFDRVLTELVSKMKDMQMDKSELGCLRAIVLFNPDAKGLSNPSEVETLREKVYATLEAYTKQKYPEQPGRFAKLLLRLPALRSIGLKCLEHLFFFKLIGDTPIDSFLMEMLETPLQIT
Excerpt: as §1, §2

RXRβ [3] = target: T3, RXRβ (UniProt P28704); experiment: ligand binding assay; conditions: read-out: RXR Bind Ki (nM) β
T3 sequence (P28704 1-520): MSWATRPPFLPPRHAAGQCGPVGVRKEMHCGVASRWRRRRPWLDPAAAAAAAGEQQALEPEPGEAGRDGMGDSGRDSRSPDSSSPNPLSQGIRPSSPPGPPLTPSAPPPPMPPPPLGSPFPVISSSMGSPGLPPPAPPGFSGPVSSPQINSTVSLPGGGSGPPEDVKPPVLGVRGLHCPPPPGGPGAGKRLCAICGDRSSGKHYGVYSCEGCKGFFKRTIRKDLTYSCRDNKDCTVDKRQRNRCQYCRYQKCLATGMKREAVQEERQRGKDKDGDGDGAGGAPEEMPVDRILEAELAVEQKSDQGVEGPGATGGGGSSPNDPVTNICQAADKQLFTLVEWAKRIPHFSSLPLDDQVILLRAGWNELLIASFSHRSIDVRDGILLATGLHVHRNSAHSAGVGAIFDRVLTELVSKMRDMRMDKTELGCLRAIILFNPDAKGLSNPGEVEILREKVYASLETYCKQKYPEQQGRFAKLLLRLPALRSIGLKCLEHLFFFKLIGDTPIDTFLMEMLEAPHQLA
Excerpt: as §1, §2

RXRα [4] = target: T1, RXRα; experiment: holoreceptor transactivation assay; conditions: for Emax: read-out: % efficacy, RXR Trans. α
Excerpt: as §1, §2

RARγ = target: T4, RARγ (Homo sapiens, UniProt P13631); experiment: ligand binding assay; conditions: read-out: RAR Bind. Ki (nM) Y
T4 sequence (P13631 1-454): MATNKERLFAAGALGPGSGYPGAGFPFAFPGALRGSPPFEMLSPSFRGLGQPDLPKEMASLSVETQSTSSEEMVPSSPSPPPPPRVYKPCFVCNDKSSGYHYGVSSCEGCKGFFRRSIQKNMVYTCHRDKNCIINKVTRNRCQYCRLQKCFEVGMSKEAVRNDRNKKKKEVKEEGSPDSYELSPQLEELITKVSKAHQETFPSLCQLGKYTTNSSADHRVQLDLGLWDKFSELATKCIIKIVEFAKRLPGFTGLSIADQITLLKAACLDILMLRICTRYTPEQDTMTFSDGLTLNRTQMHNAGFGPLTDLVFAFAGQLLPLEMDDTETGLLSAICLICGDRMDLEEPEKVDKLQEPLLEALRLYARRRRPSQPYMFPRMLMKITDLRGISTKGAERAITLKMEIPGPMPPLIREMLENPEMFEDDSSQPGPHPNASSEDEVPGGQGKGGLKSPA
Excerpt: as §1, §2

RXRγ [5] = target: T2, RXRγ; experiment: ligand binding assay; conditions: read-out: RXR Bind Ki (nM) Y
RARβ = target: T5, RARβ (Homo sapiens, UniProt P10826); experiment: ligand binding assay; conditions: read-out: RAR Bind. Ki (nM) β
T5 sequence (P10826 1-455): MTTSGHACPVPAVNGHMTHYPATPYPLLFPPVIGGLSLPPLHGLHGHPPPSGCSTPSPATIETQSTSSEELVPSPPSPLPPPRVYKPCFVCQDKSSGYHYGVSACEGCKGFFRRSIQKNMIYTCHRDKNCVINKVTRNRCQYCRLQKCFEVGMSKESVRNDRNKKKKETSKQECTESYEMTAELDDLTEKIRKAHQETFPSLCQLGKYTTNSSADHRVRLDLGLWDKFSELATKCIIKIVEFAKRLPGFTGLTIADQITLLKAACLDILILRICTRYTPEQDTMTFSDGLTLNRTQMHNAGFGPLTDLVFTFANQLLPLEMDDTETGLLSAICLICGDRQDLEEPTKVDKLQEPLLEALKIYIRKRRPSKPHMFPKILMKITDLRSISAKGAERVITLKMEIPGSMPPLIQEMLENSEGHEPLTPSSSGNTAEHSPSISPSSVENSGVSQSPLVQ
Excerpt: as §1, §2

RXRβ [6] = target: T3, RXRβ; experiment: holoreceptor transactivation assay; assay type: cell-based; conditions: for EC50: NA = Not Active, read-out: RXR Trans. EC50 (nM) β; for % efficacy, RXR Trans. β: relative to 10^−6 M AGN 194204
Excerpt: as §1, §2

| SMILES | Ki (RXRα [1]) | EC50 (RXRγ [2]) | % efficacy, RXR Trans. Y (RXRγ [2]) | Ki (RXRβ [3]) | EC50 (RXRα [4]) | Emax (RXRα [4]) | Ki (RARγ) | Ki (RXRγ [5]) | Ki (RARβ) | EC50 (RXRβ [6]) | % efficacy, RXR Trans. β (RXRβ [6]) |
| --- | --- | --- | --- | --- | --- | --- | --- | --- | --- | --- | --- |
| CC1=CCC(C)(C)c2cc(N(C)c3ccc(C(=O)O)cc3)c(C)cc21 [Compound 44, 4-[Methyl(3,5,8,8-tetramethyl-7,8-dihydronaphthalen-2-yl)amino]benzoic acid] | > 1000 nM | > 1000 nM | (15) % | > 1000 nM | > 1000 nM | 30% | > 10000 nM | > 1000 nM | > 10000 nM |  |  |
| CCN(c1ccc(C(=O)O)cc1)c1cc2c(cc1C)C(C)=CCC2(C)C [Compound 45, 4-[Ethyl(3,5,8,8-tetramethyl-7,8-dihydronaphthalen-2-yl)amino]benzoic acid] | > 1000 nM | > 1000 nM | (25) % | > 1000 nM |  | 50% | > 10000 nM | > 1000 nM | > 10000 nM |  |  |
| CCCN(c1ccc(C(=O)O)cc1)c1cc2c(cc1C)C(C)=CCC2(C)C [Compound 46, 4-[n-Propyl(3,5,8,8-tetramethyl-7,8-dihydronaphthalen-2-yl)amino]benzoic acid] | > 10000 nM |  | (65) % | > 10000 nM |  | 55% | > 10000 nM | > 10000 nM | > 10000 nM | > 1000 nM | (8) % |
| CCCN(c1ccc(C(=O)O)cc1)c1cc2c(cc1C)C(C(C)C)=CCC2(C)C [Compound 54, 4-[n-Propyl-(5-isopropyl-3,8,8-trimethyl-7,8-dihydronaphthalen-2-yl)lamino]benzoic acid] | 485 nM |  | (85) % | > 1000 nM | 378 nM | 66% | > 10000 nM |  | > 10000 nM | > 1000 nM | (40) % |
| CCN(c1ccc(C(=O)O)cc1)c1cc2c(cc1C)C(C(C)(C)C)=CCC2(C)C [Compound 60, 4-[Ethyl-(5-t-butyl-3,8,8-trimethyl-7,8-dihydronaphthalen-2-yl)amino]benzoic acid] | 64 nM | 182 nM | (124) % | 426 nM | 72 nM | 88% |  | 101 nM | > 10000 nM |  | (60) % |
| CC1=CCC(C)(C)c2cc(N(C)c3ccc(C(=O)O)cc3)ccc21 [Compound 67, 4-[Methyl-(5,8,8-trimethyl-7,8-dihydro-naphthalen-2-yl)-amino]-benzoic acid] | 666 nM |  |  | > 1000 nM |  |  |  | 1300 nM | > 10000 nM |  |  |
| CCC1=CCC(C)(C)c2cc(N(CC)c3ccc(C(=O)O)cc3)ccc21 [Compound 75, 4-[Ethyl-(5-ethyl-8,8-dimethyl-7,8-dihydro-naphthalen-2-yl)-amino]-benzoic acid] | 442 nM |  | (95) % | 806 nM | 319 nM | 100% | > 10000 nM |  | > 10000 nM |  | (75) % |
| CCCN(c1ccc(C(=O)O)cc1)c1ccc2c(c1)C(C(C)(C)C)=CCC2(C)C [Compound 89] | 7 nM | 1 nM | 105) % | 34 nM | 1 nM | 108% |  | 8 nM | > 10000 nM | 8 nM | (93) % |
| CCCOc1cc2c(cc1N(CC)c1ccc(C(=O)O)cc1)C(C(C)C)=CCC2(C)C [Compound 150, 4-[Ethyl-(8-isopropyl-5,5-dimethyl-3-n-propoxy-5,6-dihydronaphthalen-2-yl)amino]benzoic acid] | 61 nM |  |  | 208 nM |  |  | 7900 nM | 352 nM | 3800 nM |  |  |
| CCN(c1ccc(C(=O)O)cc1)c1cc2c(cc1OC(C)C)C(C)(C)CC=C2C(C)C [Compound 151, 4-[Ethyl-(3-isopropoxy-5,5-dimethyl-8-isopropyl-5,6-dihydronaphthalen-2-yl)amino]benzoic acid] | 54 nM |  |  | 155 nM |  |  | > 10000 nM | 248 nM | 1200 nM |  |  |
| CCCCOc1cc2c(cc1N(CC)c1ccc(C(=O)O)cc1)C(C(C)C)=CCC2(C)C [Compound 152, 4-[(3-n-Butoxy-8-isopropyl-5,5-dimethyl-5,6-dihydronaphthalen-2-yl)ethylamino]benzoic acid] | 29 nM |  |  | 136 nM |  |  |  | 437 nM | 2300 nM |  |  |
| CCN(c1ccc(C(=O)O)cc1)c1cc2c(cc1OCc1ccccc1)C(C)(C)CC=C2C(C)C [Compound 154, 4-[(3-Benzyloxy-8-isopropyl-5,5-dimethyl-5,6-dihydronaphthalen-2-yl)ethylamino]benzoic acid] | 3 nM |  |  | 19 nM |  |  | 6200 nM | 41 nM | 1800 nM |  |  |
| CCN(c1ccc(C(=O)O)cc1)c1cc2c(cc1OCc1ccc(C)cc1)C(C)(C)CC=C2C(C)C [Compound 155, 4-{Ethyl-[8-isopropyl-5,5-dimethyl-3-(4-methylbenzyloxy)-5,6-dihydronaphthalen-2-yl]amino}benzoic acid] | 3 nM |  |  | 334 nM |  |  | 2900 nM | 398 nM | 1400 nM |  |  |
| CCN(c1ccc(C(=O)O)cc1)c1cc2c(cc1OCc1cc(C(C)(C)C)cc(C(C)(C)C)c1)C(C)(C)CC=C2C(C)C [Compound 156, 4-{[3-(3,5-di-t-butylbenzyloxy)-8-isopropyl-5,5-dimethyl-5,6-dihydronaphthalen-2-yl]ethylamino}benzoic acid] | 804 nM |  |  | > 1000 nM |  |  | 4200 nM | > 1000 nM | 1500 nM |  |  |
| CCN(c1ccc(C(=O)O)cc1)c1cc2c(cc1OCc1ccccc1)C(C)(C)CC=C2C(C)(C)C [Compound 158] | 4 nM |  |  | 3 nM |  |  | 881 nM | 161 nM | 374 nM |  |  |
